Common to all, as to assay type: in vivo, mouse
In one assay the test system is whole lung tissues. Nature of the assay: Measurements of mRNA expression in the lungs (RT-qPCR), acute lung injury induced by LPS. The note with it: for CD31 gene expression: lungs (FIG. 12A); for VEGF gene expression: lungs (FIG. 12B); for α-SMA gene expression: lungs (FIG. 12C); for TRPC3 gene expression: day 7 (FIG. 10B); for TRPC6 gene expression: day 7 (FIG. 10C); for Orai1 gene expression: day 7 (FIG. 10D); for NGAL expression: day 7 (FIG. 15A); for SP-D expression: day 7 (FIG. 15B); for caspase 3 expression: day 7 (FIG. 15C); for proinflammatory cytokines gene expression (IL-1, IL-6, IL-17, TNF-α, IFN-γ): day 7 (FIGS. 11A-11E); for TLR-4 gene expression: seven days after LPS (FIG. 10A). As to the method: Acute Lung Injury Induced by LPS—Female C57BL/6 mice received a sublethal or lethal dose of LPS from Escherichia coli (0127: B8 strain, Sigma Aldrich, St. Louis, MO, USA). LPS in sterile PBS was administered intraperitoneally at 20- or 25-mg/kg body weight.
Treatment for Lung Studies-Lenti-IGF-I was administered intramuscularly 24 h before LPS injection. The TRP and ORAI calcium channel blocker BTP-2 (YM-58483 16 mg/kg, Cayman Chemical, Ann Arbor, MI, USA) was given IP 1 h before LPS injection. Some of the animals received a combination of lenti-IGF-I and BTP-2. Mice in control groups were injected with an equal volume of PBS.
Measurements of mRNA Expression in the Lungs—For the measurement of the mRNA expressions of the whole lung tissues, RT-qPCR was performed. Lung tissues were snap-frozen in liquid nitrogen. According to the manufacturer's instructions, total RNA was isolated using the RNeasy Micro Kit® (Qiagen, Valencia, CA, USA). First-strand cDNA was synthesized using the SuperScript® III Reverse Transcriptase (Life Technologies, Grand Island, NY, USA). Quantitative RT-qPCR was performed and analyzed in an Applied Biosystems 7900HT Real-Time PCR machine (Applied Biosystems, Foster City, CA). The PCR condition was 10 min at 95° C. followed by 40 cycles of 10 s at 95° C. and 15 s at 60° C. The relative amount of mRNA was calculated using the comparative Ct (DDCt) method. All specific amplicons were normalized against GAPDH. Table 2 (SEQ ID Nos:1-36) provides for a list of the primers.
In general terms: Quantitative PCR measures a nucleic acid by following its amplification.

In the next assay the test system is kidneys. Nature of the assay: Vascular leakage permeability assay (Evans blue dye), kidney. The note with it: day 1 (FIG. 5A). The protocol:
(§1) Experimental Design for IGF-1 and BTP-2 studies—The animal experiments involved B6 mice between 5-8 weeks of age. Most experiments involved five groups of animals: (1) healthy, (2) LPS untreated (LPS-No Tx), (3) IGF-I in vivo gene therapy one day before LPS injection (LPS+IGF-1), (4) BTP-2 16 mg/kg i.p. at the start of the study and the (5) combined therapy with IGF-I and BTP-2 (LPS-IGF-1+BTP-2). For the survival experiment, a lethal dose of LPS (25 mg/kg) was used and all of the untreated animals died by 72 hours. In the other experiments, a sublethal dose of LPS (20 mg/kg) was used.
LPS induced sepsis and subsequent AKI—Female C57BL/6 mice received a sublethal or lethal dose of LPS from E. coli (0127: B8 strain, Sigma Aldrich, St. Louis, MO, USA) in a concentration of 20 or 25 mg/kg body weight administrated in sterile PBS by intraperitoneal injection. […]
Vascular leakage permeability assay—Evans blue dye (EBD) was dissolved in a 0.9% saline solution at a concentration of 5 mg/mL and injected to the mouse tail vein (50 mg/kg, i.v.). […] The absorbance of the supernatants was measured at 620 and 740 nm using a dual-wave ELISA plate reader.

The subject of the next assay is kidney. Nature of the assay: Renal histology (CD31 and α-SMA staining, PAS staining, tubular injury score). The note with it: for PECAM (CD-31) staining: renal sections (FIGS. 4A-4E); for α-SMA staining: renal sections (FIGS. 4F-4J). As to the method: as §1
(§2) LPS induced sepsis and subsequent AKI—Female C57BL/6 mice received a sublethal or lethal dose of LPS from E. coli (0127: B8 strain, Sigma Aldrich, St. Louis, MO, USA) in a concentration of 20 or 25 mg/kg body weight administrated in sterile PBS by intraperitoneal injection.
(§3) Treatment—In a preventive therapeutic strategy, some of the mice received an intramuscular injection of Lenti-IGF-1 24 hours before LPS injection; whereas, the calcium signaling blocker BTP-2 (16 mg/kg, Cayman Chemical) was administrated 1 hour before LPS injection. Some of the animals received a combination of Lenti-IGF-1 and BTP-2. Control group mice were injected with an equal volume of PBS.
Renal Histology—After sacrificing the mice, one part of the kidney was immediately cut, fixed in a 10% neutral buffered formalin solution, embedded in paraffin, and used for histopathological examination. 10-micrometer-thick sections were cut, deparaffinized, and hydrated. All renal serial sections were incubated at 4° C. overnight with one of two antibodies; rabbit polyclonal antibody against PECAM (CD31) (Santa Cruz, MA) or rabbit polyclonal antibody against α-SMA (Abcam, MA). After washing with TBST, biotinylated goat anti-rabbit IgG (1:200, Vector Labs, Burlingame, CA) were applied to the sections for 30 min at room temperature. Sections then were incubated with Streptavidin-HRP (Vector Labs, Burlingame, CA) for 30 min at room temperature. Diaminobenzidine (DAB; Vector Labs, Burlingame, CA) was used as the chromogen and hematoxylin as the counterstain. One part of the kidney was stained with periodic acid Schiff (PAS) stain. The PAS stained sections were examined for renal morphology in an automated fashion by quantification of a glycogen specific color in the kidney tissue using ImageJ (National Institutes of Health, Bethesda, MD, USA). A minimum of 10 fields for each kidney slide were examined and scored for pathological injury. […] The average histological score for each sample was calculated. The images were captured with an Olympus BX51 microscope, 40× magnification. (Olympus, Center Valley, PA).

The test system of a further assay is whole kidney tissue. Nature of the assay: Measurements of mRNA expression in the kidney (real-time PCR), LPS-induced AKI. Conditions: for Orai1 gene expression: 7 days after LPS 20 mg/kg (FIG. 2E); for NGAL gene expression: 7 days after LPS (FIG. 6C); for proinflammatory cytokines gene expression (IL-1b, IL-17, IL-6, TNF-α, IL-18): 7 days after LPS (FIGS. 3A-3E). The protocol: as §1, §2, §3
Measurements of mRNA Expression in the Kidney—For the measurement of the mRNA expressions of whole kidney tissue, we performed real-time PCR. The relative amount of mRNA was calculated using the comparative Ct(ΔΔCt) method. All specific amplicons were normalized against GAPDH.

Entries after “also recorded” stand apart in the source; their conditions may differ.

Take `Cc1nnsc1C(=O)Nc1ccc(-n2nc(C(F)(F)F)cc2C(F)(F)F)cc1` [BTP-2, 3,5-bis(trifluoromethyl)pyrazole derivative]: in the assay with whole lung tissues, the CD31 gene expression entry is given as “corrected”, the VEGF gene expression result was “markedly increased the VEGF expression” and the α-SMA gene expression entry was “completely corrected”. In addition, in the assay with whole lung tissues (lungs, day 7), the IFN-γ expression result is “decreased; also recorded: corrected”, the IL-17 expression result is on record as “markedly decreased” and the TNF-α expression result is “marked decreases; also recorded: decreased”. For the same molecule, in the assay with whole lung tissues (lungs), the TRPC3 gene expression entry is given as “decreased; also recorded: normalized”, the TRPC6 gene expression result is listed as “decreased; also recorded: normalized”, the Orai1 gene expression entry is reported as “significant decrease; also recorded: normalized” and the NGAL expression result is “significantly reduced the elevated NGAL expression almost to normal”. In addition, in the assay with whole lung tissues (lungs), the SP-D expression entry is given as “normalized”; the “caspase 3 expression” value was “corrected the elevated caspase 3 expression”; the “proinflammatory cytokines gene expression (IL-1, IL-6, IL-17, TNF-α, IFN-γ)” value is “decreased the gene expression most of the proinflammatory cytokines to normal; also recorded: remarkably suppressive”; the TLR-4 gene expression result is reported as “decreased the TLR-4 gene expression to the normal level”. Moreover, the calcineurin gene expression entry in the assay with whole lung tissues (lungs, day 7 (FIG. 10E)) is “decreased; also recorded: normalized”. Besides, in the assay with whole lung tissues (lungs, day 7 (FIG. 10F)), the Nfat gene expression result is listed as “decreased; also recorded: normalized”. In the assay on kidneys, the “vascular leakage (extravasation of Evans blue dye)” value was “more so”. For the same molecule, in the assay with kidney, the “PECAM (CD-31) staining” value is on record as “improved” and the α-SMA staining result is on record as “improved”. For the same molecule, in the assay on whole kidney tissue, the Orai1 gene expression entry is reported as “decreased Orai1 expression to normal; also recorded: marked decrease”; the NGAL gene expression result was “improved”; the “proinflammatory cytokines gene expression (IL-1b, IL-17, IL-6, TNF-α, IL-18)” value was “decreased”. For the same molecule, the Nf-kB gene expression entry in the assay with whole kidney tissue (7 days after LPS (FIG. 2C)) is recorded as “decreased”. Moreover, the CD31 gene expression entry in the assay with whole kidney tissue (7 days after LPS (FIG. 5C)) is “increased”.
For the molecule “IGF-I: Insulin-like Growth Factor, delivered by a lentiviral vector engineered to express IGF-I injected into skeletal muscle”, in the assay with whole lung tissues, the CD31 gene expression entry is “corrected”, the VEGF gene expression result is reported as “did not affect the VEGF expression” and the α-SMA gene expression entry is “did not indicate such beneficial effects”. Besides, in the assay on whole lung tissues (lungs, day 7), the IFN-γ expression entry was “decreased; also recorded: corrected”, the IL-6 expression entry is on record as “markedly decrease”, the IL-17 expression result is listed as “markedly decreased” and the TNF-α expression result is reported as “marked decreases; also recorded: decreased”. Moreover, in the assay on whole lung tissues (lungs), the TRPC3 gene expression entry is given as “decreased; also recorded: significant decrease”, the TRPC6 gene expression entry is given as “decreased; also recorded: significant decrease”, the Orai1 gene expression result is “decreased; also recorded: significant decrease” and the NGAL expression entry is “significantly reduced the elevated NGAL expression almost to normal”. Further, in the assay with whole lung tissues (lungs), the SP-D expression result is on record as “normalized”; the “caspase 3 expression” value is given as “corrected the elevated caspase 3 expression”; the “proinflammatory cytokines gene expression (IL-1, IL-6, IL-17, TNF-α, IFN-γ)” value was “decreased the gene expression most of the proinflammatory cytokines to normal; also recorded: remarkably suppressive; also recorded: as effective as BTP-2”; the TLR-4 gene expression result is reported as “decreased the TLR-4 gene expression to the normal level”. Also, in the assay on kidneys, the “vascular leakage (extravasation of Evans blue dye)” value is “improved”. Further, in the assay on kidney, the “PECAM (CD-31) staining” value is “improved” and the α-SMA staining entry was “improved”. In the assay on whole kidney tissue, the Orai1 gene expression entry is “decreased Orai1 expression”; the NGAL gene expression result is “improved”; the “proinflammatory cytokines gene expression (IL-1b, IL-17, IL-6, TNF-α, IL-18)” value is given as “decreased”.

The values above are taken from patent publication US12714721B2, “Methods of treatment of a cytokine storm” (Loma Linda University Health, priority 2020, dated 2026).
